According to patent US20200330447A1, “CANCER TREATMENT VIA REPOSITIONED TRICYCLIC ANTI-DEPRESSANT-LIKE DRUGS AS ANTI-CANCER AGENTS AND NEW COMBINATIONS OF SUCH DRUGS” (Board of Supervisors of Louisiana State University and …, priority 2015, published 2020):
Where a name gives a salt, the structure may show the parent alone.

These molecules were tested on Erk signaling pathway (assay: Lysosome inward movement in the presence of the MAPK inhibitor U0126, and Erk western blot). Settings: deptropine and pizotifen 5 μM, 4 hours, A172 cells.
Type: cell-based
Method: Turning to FIG. 8, deptropine and pizotifen are shown to act through the Erk signaling pathway. In this experiment, A172 cells were treated with deptropine and pizotifen at 5 μM concentrations for 4 hours in the presence of the MAPK inhibitor U0126. I.F. microscopy was then performed. This helped allow the determination of the mechanism of action of deptropine and pizotifen.

Molecule | effect of U0126 on inward movement of lysosomes induced by deptropine and pizotifen
N#CC(=C(/N)Sc1ccccc1N)/C(C#N)=C(\N)Sc1ccccc1N [U0126] | prevents the action of deptropine and pizotifen

These molecules were tested on A172 glioblastoma cells (assay: Acidic media pH induced lysosome distribution, LAMP-1 IF imaging). Settings: EIPA, low pHe media.
Type: cell-based
Method: A172 glioblastoma cells were treated overnight with 5 or 10 μM deptropine or pizotifen or with the deptropine or pizotifen in combination at 5 μM concentration. The next day, media was change to low pHe media containing deptropine or pizotifen and the cells were incubated for an additional 2 h. EIPA is a known inhibitor of lysosomal outward movement and represents the positive control. At the end of the incubation time, cells were fixed and stained for LAMP-1, filamentous actin and nuclei. Representative merged IF images depicting the effect of pHe 7.4, pHe 6.4, DMSO or deptropine and pizotifen on the distribution of lysosomes in A172 glioblastoma cells. On color versions of the Figure, red puncta are lysosomes, blue is nuclei and green is actin. As could be seen, lysosomes appear more peripherally distributed in A172 glioma cells than in cells treated with concentrations of 5 to 10 micromolar deptropine or pizotifen.
Cells were treated as described above with FIG. 2 but included a concentration of 0.1 micromolar and 1 micromolar deptropine and pizotifen.
Turning to FIG. 7, an additional aspect of this technology is how quickly deptropine and pizotifen act to move lysosomes towards the nucleus. […] A172 glioblastoma cells were treated with the 5 or 10 μM deptropine or pizofifen for 2 h and then with low pHe media containing the drugs for an additional 2 hours. At the end of incubation time, cells were fixed and stained for LAMP-1, filamentous actin, and nuclei. Representative merged IF images depicting the effect of DMSO, 5 and 10 μM deptropine or pizotifen upon 4 hours on the distribution of lysosomes, colored red in color images, in A172 glioblastoma cells. Also shown in color images are actin, colored green, and nuclei, colored blue.

Molecule | acidic media induced lysosome redistribution, positive control
CCN(c1nc(N)c(C(=O)NC(=N)N)nc1Cl)C(C)C [EIPA] | prevented lysosome redistribution and induced clustering of lysosomes around the nucleus

These molecules were tested on DU145 prostate cancer cells (assay: High content imaging-based screen (Cellomics) for lysosome migration inhibitors). Settings: EIPA 25 uM, 16 hours.
Type: cell-based
Method: DEVELOPMENT OF A HIGH CONTENT IMAGING-BASED SCREEN: The followings process was followed to identify chemicals that were lysosome migration inhibitors. DU145 prostate cancer cells were seeded in 96 well flat bottom black walled plates at 4,500 cells per well. All compounds and controls were exposed to RPMI bicarbonate buffered media (pH 6.4). RPMI buffered media titrated at pH of 6.4-6.8 was added to column 12 after the media was removed and serves as negative control (low acidic pH so lysosomes move out). […] The 4 compound libraries chosen to screen were the NIH Clinical Collection (450 drugs), Prestwick (1200 drugs), Prestwick phytochemical and the Green Pharma collection (xx drugs). Compounds were diluted with buffered RPMI media to 2 micrograms per ml concentrations. Individual compounds to be screened were added robotically as a single compound per well through columns 2-11. Plates were incubated at 37 degrees in 5% CO2 for 16 hours then the medium was removed and the cells were fixed with 4% cold paraformaldehyde (Sigma-Aldrich) for 20 minutes at 4 degrees. Fixed cells were washed once with PBS. To stain lysosomes, cells were incubated for 1 hour with LAMP1 antibody (H4A3) diluted in BSP (containing 0.25% BSA and 0.1% saponin in PBS) at 1/200. Cells were then washed with PBS 3 times then incubated for 1 hour with Dylight Donkey anti-mouse diluted at 1/200 in BSP. To stain the nucleus, cells were then washed with PBS 3 times and incubated for 20 minutes with 1×DAPI diluted in PBS. DAPI was washed off with PBS and cells were maintained in PBS for the duration of the screening process. Plates were mounted and read in a Cellomics Arrayscan automated fluorescence imager. The Cellomics platform allows for high content throughput screening by combining fluorescence microscopy with a multi-parameter image analysis. Cells were photographed using 20× objective in 2 fluorescent channels. A total of 15 different fields in each well, and at least 300 cells were imaged per well. The biocompartmental analysis algorithm was used to identify each cell by its nucleus (channel 1 recognized by the DAPI stain) and to generate a cytoplasmic mask (ring) of 12 pixels width in which the inner ring was 6 pixels away from the nucleus. The algorithm calculates the number of lysosomes inside the ring as indicated by fluorescent LAMP-1 positive puncta in channel 2 as a mean ring spot count. Therefore, when lysosomes move away from the nucleus and disperse throughout the cytoplasm, the number of spots representing lysosomes inside the cytoplasmic ring increases (low pH conditions). By contrast, lysosomes cluster near the nucleus the numbers of spot inside the cytoplasmic ring decreases (EIPA treated).
Z′-factor is a simple statistical coefficient used to assess performance and quality of the assay in high-throughput screening. It is calculated with the formula: Z′=1-(3σct+3σcb)/|μct−μcb|, where p indicates mean, a represents standard deviation, “ct” indicates the positive control, “cb” indicates the negative control. […] If the Z′ is more than 0.5, the assay is considered to be high quality assay.
The Z′ factor of the assay was determined from the EIPA (positive control) and low pH (negative control). Experiments were run in duplicate. Only plates with positive Z′ factor was used for analysis.

Molecule | lysosome position, positive control
CCN(c1nc(N)c(C(=O)NC(=N)N)nc1Cl)C(C)C [EIPA] | lysosomes near the nucleus

Same assay, conditions: pH 6.4 media, 2 micrograms per ml, 16 hours

Molecule | hit in screen for lysosome migration inhibitors (mean ring spot count)
CC(=O)O[C@H]1C(=O)[C@@]2(C)[C@H]([C@H](OC(=O)c3ccccc3)[C@]3(O)C[C@H](OC(=O)[C@H](O)[C@@H](NC(=O)c4ccccc4)c4ccccc4)C(C)=C1C3(C)C)[C@]1(OC(C)=O)CO[C@@H]1C[C@@H]2O [paclitaxel] | hits
COC(=O)Nc1nc2ccc(C(=O)c3ccccc3)cc2[nH]1 [mebendazole] | hits
COc1ccc2c(c1)[nH]c1c(C)nccc12 [harmine] | hit
CCCSc1ccc2nc(NC(=O)OC)[nH]c2c1 [albendazole] | hits
COc1cc([C@@H]2c3cc4c(cc3[C@H](O)[C@H]3COC(=O)[C@H]23)OCO4)cc(OC)c1OC [podophyllotoxin] | hits
COC(=O)Nc1nc2ccc(Sc3ccccc3)cc2[nH]1 [fenbendazole] | hits
CC[C@]1(O)C[C@H]2CN(CCc3c([nH]c4ccccc34)[C@@](C(=O)OC)(c3cc4c(cc3OC)N(C=O)[C@H]3[C@@](O)(C(=O)OC)[C@H](OC(C)=O)[C@]5(CC)C=CCN6CC[C@]43[C@@H]65)C2)C1 [vincristine] | hits
O=C(c1ccc(OCCN2CCCCC2)cc1)c1c(-c2ccc(O)cc2)sc2cc(O)ccc12 [raloxifene] | hits
CC(C)[C@@]1(NC(=O)[C@@H]2C[C@@H]3c4cccc5[nH]cc(c45)C[C@H]3N(C)C2)O[C@@]2(O)[C@@H]3CCCN3C(=O)[C@H](Cc3ccccc3)N2C1=O [dihydroergocristine mesylate, (5′α,10α)-9,10-Dihydro-12′-hydroxy-2′-(1-methylethyl)-5′-(phenylmethyl)-ergotaman-3′, 6′, 18-trione mesylate] | hits
CC[C@]1(O)C[C@@H]2CN(CCc3c([nH]c4ccccc34)[C@@](C(=O)OC)(c3cc4c(cc3OC)N(C)[C@H]3[C@@](O)(C(N)=O)[C@H](O)[C@]5(CC)C=CCN6CC[C@]43[C@@H]65)C2)C1 [vindesine] | hits
COc1cc2c(c(OC)c1OC)-c1ccc(OC)c(=O)cc1[C@@H](NC(C)=O)CC2 [colchicine] | hits
O=C(Nc1ccc([N+](=O)[O-])cc1Cl)c1cc(Cl)ccc1O [niclosamide] | hits
OC(c1cc(C(F)(F)F)nc2c(C(F)(F)F)cccc12)C1CCCCN1 (stereo not drawn) [mefloquine, [(R*,S*)-2,8-bis(trifluoromethyl)quinolin-4-yl]-(2-piperidyl)methanol] | hit
dihydroergotoxine mesylate | hits
CCC1=C[C@@H]2CN(C1)Cc1c([nH]c3ccccc13)[C@@](C(=O)OC)(c1cc3c(cc1OC)N(C)[C@H]1[C@@](O)(C(=O)OC)[C@H](OC(C)=O)[C@]4(CC)C=CCN5CC[C@]31[C@@H]54)C2 [vinorelbine] | hits
